We go through 2 substances from paper PMC4420518 (Protein Science : A Publication of the Protein Society, 2015).

The subject of experiment [1] is TpsB4-P1 (TpsB4 POTRA1 domain). Briefly: 1H-15N HSQC NMR titration of 15N-labelled TpsB4-P1 with peptides. The experiment is classed as binding, P. aeruginosa.
Experiment [2] addresses TpsB4 POTRA1 domain (TpsB4-P1; residues 42-121) (P. aeruginosa). Briefly: NMR titration.

On to QVFLVNPNGVLFGRGAQ [CupB5^80–96], for which, in experiment [1] (200 μM TpsB4-P1, synthetic peptides, free N- and C-termini), the “binding to 15N-labelled TpsB4-P1 (CSPs in 1H-15N HSQC)” value is on record as “interacts with TpsB4‐P1 with a virtually identical pattern of CSPs”. Moreover, the “exchange regime of interaction with TpsB4 POTRA1” value in experiment [1] (NMR timescale) is recorded as “fast exchange”. Take TpsA4^79-95 peptide: the Kd in experiment [2] stood at 1.49 mM.
